The text below walks through data of publication PMC11279465, “Dual Inhibitors of P-gp and Carbonic Anhydrase XII (hCA XII) against Tumor Multidrug Resistance with Piperazine Scaffold” (Molecules, 2024).

Experiment [1] relates to K562/DOX cells. The experiment is described as follows: Doxorubicin cytotoxicity enhancement assay (MTT). The class given is cell-based, human. The note with it: 72 h. On the procedure:
K562 is a highly undifferentiated erythroleukemia cell line. The doxorubicin-resistant K562/DOX cells overexpress almost exclusively the transporter membrane protein P-gp.
K562/DOX cells were incubated for 72 h with different concentrations of doxorubicin in combination with 1 or 3 µM of all compounds. […] HT29, A549, HT29/DOX and A549/DOX cells were incubated for 48 h with 5 µM doxorubicin, alone or in combination with 1 or 3 µM of selected compounds. Cell viability of the cell lines was measured by the MTT assay, using a Synergy HT microplate spectrofluorometer (Bio-Tek Instruments, Winooski, VT, USA). The absorbance of untreated cells was considered 100%; results were expressed as a percentage of viable treated cells versus the control untreated cells.

Experiment [2] addresses T1, hCA XII (Homo sapiens, UniProt O43570).
T1 construct: made in house
The experiment is described as follows: CA inhibition, stopped-flow CO2 hydrase assay. The class given is biochemical. The note with it: stopped-flow technique; incubation time 6 h; mean of 3 assays. As to the method: (§1) Four hCA isoforms were used in this assay: the cytosolic hCA I and II and the tumor-associated transmembrane hCA IX and XII isoforms. Acetazolamide (AAZ) was used as a standard inhibitor.
(§2) An SX.18MV-R Applied Photophysics (Oxford, UK) stopped-flow instrument has been used to assay the catalytic/inhibition of various CA isozymes. […] Saturated CO2 solutions in water at 25 °C were used as substrate. Stock solutions of inhibitors were prepared at a concentration of 10 μM (in DMSO-water 1:1, v/v) and dilutions up to 0.01 nM were carried out with the assay buffer mentioned above. […] Inhibitor and enzyme solutions were preincubated together for 6 h at room temperature prior to assay in order to allow for the formation of the E-I complex. […] The inhibition constants were obtained by non-linear least-squares methods using the Cheng–Prusoff equation, as reported earlier, and represent the mean from at least three different determinations.

For experiment [3], the target named is T2, hCA I (Homo sapiens, UniProt P00915).
T2 construct: made in house
Briefly: CA inhibition, stopped-flow CO2 hydrase assay. The class given is biochemical. The settings on record: stopped-flow technique; incubation time 6 h; mean of 3 assays. As to the method: as §1, §2

Experiment [4] has as its target T3, hCA IX (Homo sapiens, UniProt Q16790).
T3 construct: made in house
The experiment is described as follows: CA inhibition, stopped-flow CO2 hydrase assay. The class given is biochemical. The note with it: stopped-flow technique; incubation time 6 h; mean of 3 assays. On the procedure:
as §1, §2

Experiment [5] addresses T4, hCA II (Homo sapiens, UniProt P00918).
T4 construct: made in house
Briefly: CA inhibition, stopped-flow CO2 hydrase assay. It is filed as biochemical. The note with it: stopped-flow technique; incubation time 6 h; mean of 3 assays. On the procedure: as §1, §2

Structures are written as SMILES. A value given as a limit tells only on which side of the number the result lay.

T2 sequence (P00915 whole entry): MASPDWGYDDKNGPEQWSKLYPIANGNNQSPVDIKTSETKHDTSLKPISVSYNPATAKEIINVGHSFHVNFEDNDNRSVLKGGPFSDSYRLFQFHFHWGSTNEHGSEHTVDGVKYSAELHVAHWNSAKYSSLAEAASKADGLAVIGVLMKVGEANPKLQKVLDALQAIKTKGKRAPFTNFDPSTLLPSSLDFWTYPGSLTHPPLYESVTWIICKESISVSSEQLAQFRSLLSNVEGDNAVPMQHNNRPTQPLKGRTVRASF
T1 sequence (O43570 25-354): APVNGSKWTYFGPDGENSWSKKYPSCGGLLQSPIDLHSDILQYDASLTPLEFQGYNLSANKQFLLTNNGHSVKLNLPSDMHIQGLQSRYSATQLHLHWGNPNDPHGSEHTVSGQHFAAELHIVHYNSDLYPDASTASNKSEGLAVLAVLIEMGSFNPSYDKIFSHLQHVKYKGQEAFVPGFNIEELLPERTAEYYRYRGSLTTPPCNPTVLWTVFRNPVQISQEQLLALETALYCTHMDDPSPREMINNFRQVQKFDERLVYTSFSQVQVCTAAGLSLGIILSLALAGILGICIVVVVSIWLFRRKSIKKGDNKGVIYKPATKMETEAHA

Regarding `COc1cc(CN2CCN(CCCCOc3ccc4oc(=O)ccc4c3)CC2)cc(OC)c1OC` [Compound 21, 6-(4-(4-(3,4,5-Trimethoxybenzyl)piperazin-1-yl)butoxy)-2H-chromen-2-one], the results for the “RF (Reversal Fold: IC50 of doxorubicin alone / in presence of modulator)” value in experiment [1] (compound at 1 µM) and in experiment [1] (compound at 3 µM) were 3.9 and 4.1, respectively. Further, the Ki (as a rule, a measure of affinity in units of concentration, obtained from inhibition or displacement) is 0.0159 µM in experiment [2], more than 10 µM in experiment [3], 0.0503 µM in experiment [4] and more than 10 µM in experiment [5].
With `COc1ccc(C(CCCN2CCN(CCOc3ccc4c(C)cc(=O)oc4c3)CC2)c2ccc(OC)cc2)cc1` [Compound 28, 7-(2-(4-(4,4-Bis(4-methoxyphenyl)butyl)piperazin-1-yl)ethoxy)-4-methyl-2H-chromen-2-one], the inhibitory constant (Ki) was 0.103 µM in experiment [2], more than 10 µM in experiment [3], 0.135 µM in experiment [4] and more than 10 µM in experiment [5].
For `COc1ccc(C(CCCN2CCN(CCOc3ccc4oc(=O)ccc4c3)CC2)c2ccc(OC)cc2)cc1` [Compound 31, 6-(2-(4-(4,4-Bis(4-methoxyphenyl)butyl)piperazin-1-yl)ethoxy)-2H-chromen-2-one], the “RF (Reversal Fold: IC50 of doxorubicin alone / in presence of modulator)” value in experiment [1] (compound at 1 µM) is given as 3.0; in experiment [1] (compound at 3 µM), 11.4. In addition, the Ki in experiment [2] was 0.0907 µM; in experiment [3], more than 10 µM; in experiment [4], 0.115 µM; in experiment [5] it was more than 10 µM.
On to `COc1cc(/C=C/CN2CCN(CCCCOc3ccc4ccc(=O)oc4c3)CC2)cc(OC)c1OC` [Compound 3, (E)-7-(4-(4-(3-(3,4,5-Trimethoxyphenyl)allyl)piperazin-1-yl)butoxy)-2H-chromen-2-one], for which the “RF (Reversal Fold: IC50 of doxorubicin alone / in presence of modulator)” value in experiment [1] (compound at 1 µM) is reported as 3.1; in experiment [1] (compound at 3 µM), 3.7. Also, the inhibition constant Ki was 0.0346 µM in experiment [2], more than 10 µM in experiment [3], 0.082 µM in experiment [4] and more than 10 µM in experiment [5].
For `COc1cc(/C=C/CN2CCN(CCOc3ccc4oc(=O)cc(C)c4c3)CC2)cc(OC)c1OC` [Compound 10, (E)-4-Methyl-6-(2-(4-(3-(3,4,5-trimethoxyphenyl)allyl)piperazin-1-yl)ethoxy)-2H-chromen-2-one], the results for the “RF (Reversal Fold: IC50 of doxorubicin alone / in presence of modulator)” value in experiment [1] (compound at 1 µM) and in experiment [1] (compound at 3 µM) were 1.0 and 1.4, respectively. Further, the Ki in experiment [2] is 0.422 µM; in experiment [3], more than 10 µM; in experiment [4] it was 0.36 µM; in experiment [5], more than 10 µM.
Regarding `COc1cc(CN2CCN(CCCOc3ccc4c(C)cc(=O)oc4c3)CC2)cc(OC)c1OC` [Compound 17, 4-Methyl-7-(3-(4-(3,4,5-trimethoxybenzyl)piperazin-1-yl)propoxy)-2H-chromen-2-one], the “RF (Reversal Fold: IC50 of doxorubicin alone / in presence of modulator)” value in experiment [1] (compound at 1 µM) is listed as 2.6; in experiment [1] (compound at 3 µM), 2.1. Moreover, the Ki was 0.0608 µM in experiment [2], more than 10 µM in experiment [3], 0.0161 µM in experiment [4] and more than 10 µM in experiment [5].
For the compound `COc1ccc(C(CCCN2CCN(CCCOc3ccc4ccc(=O)oc4c3)CC2)c2ccc(OC)cc2)cc1` [Compound 26, 7-(3-(4-(4,4-Bis(4-methoxyphenyl)butyl)piperazin-1-yl)propoxy)-2H-chromen-2-one], the “RF (Reversal Fold: IC50 of doxorubicin alone / in presence of modulator)” value stood at 5.5 in experiment [1] (compound at 1 µM) and 17.3 in experiment [1] (compound at 3 µM). In addition, the Ki in experiment [2] is 0.115 µM; in experiment [3], more than 10 µM; in experiment [4] it was 0.153 µM; in experiment [5] it was more than 10 µM.
Turning to `COc1cc(/C=C/CN2CCN(CCCCOc3ccc4c(C)cc(=O)oc4c3)CC2)cc(OC)c1OC` [Compound 6, (E)-4-Methyl-7-(4-(4-(3-(3,4,5-trimethoxyphenyl)allyl)piperazin-1-yl)butoxy)-2H-chromen-2-one], the “RF (Reversal Fold: IC50 of doxorubicin alone / in presence of modulator)” value in experiment [1] (compound at 1 µM) is reported as 6.3; in experiment [1] (compound at 3 µM), 6.7. Moreover, the inhibition constant Ki in experiment [2] was 0.0448 µM; in experiment [3], more than 10 µM; in experiment [4], 0.0589 µM; in experiment [5], more than 10 µM.
For the compound `COc1ccc(C(CCCN2CCN(CCCCOc3ccc4c(C)cc(=O)oc4c3)CC2)c2ccc(OC)cc2)cc1` [Compound 30, 7-(4-(4-(4,4-Bis(4-methoxyphenyl)butyl)piperazin-1-yl)butoxy)-4-methyl-2H-chromen-2-one], in experiment [1] (compound at 1 µM), the “RF (Reversal Fold: IC50 of doxorubicin alone / in presence of modulator)” value was 7.7. The Ki is 0.0824 µM in experiment [2], more than 10 µM in experiment [3], 0.124 µM in experiment [4] and more than 10 µM in experiment [5].
Turning to `COc1cc(CN2CCN(CCOc3ccc4oc(=O)cc(C)c4c3)CC2)cc(OC)c1OC` [Compound 22, 4-Methyl-6-(2-(4-(3,4,5-trimethoxybenzyl)piperazin-1-yl)ethoxy)-2H-chromen-2-one], the “RF (Reversal Fold: IC50 of doxorubicin alone / in presence of modulator)” value in experiment [1] (compound at 1 µM) is recorded as 2.8; in experiment [1] (compound at 3 µM) it was 2.7. In addition, the inhibition constant (Ki) in experiment [2] was 0.229 µM; in experiment [3], more than 10 µM; in experiment [4], 0.409 µM; in experiment [5] it was more than 10 µM.
With `COc1cc(CN2CCN(CCCCOc3ccc4c(C)cc(=O)oc4c3)CC2)cc(OC)c1OC` [Compound 18, 4-Methyl-7-(4-(4-(3,4,5-trimethoxybenzyl)piperazin-1-yl)butoxy)-2H-chromen-2-one], the “RF (Reversal Fold: IC50 of doxorubicin alone / in presence of modulator)” value in experiment [1] (compound at 1 µM) turned out to be 1.9; in experiment [1] (compound at 3 µM), 3.2. In addition, the Ki in experiment [2] is 0.0721 µM; in experiment [3], more than 10 µM; in experiment [4] it was 0.0285 µM; in experiment [5] it was more than 10 µM.
As to `COc1cc(CN2CCN(CCCOc3ccc4oc(=O)ccc4c3)CC2)cc(OC)c1OC` [Compound 20, 6-(3-(4-(3,4,5-Trimethoxybenzyl)piperazin-1-yl)propoxy)-2H-chromen-2-one], the entries for the “RF (Reversal Fold: IC50 of doxorubicin alone / in presence of modulator)” value in experiment [1] (compound at 1 µM) and in experiment [1] (compound at 3 µM) were 2.3 and 2.4, respectively. Besides, the Ki in experiment [2] was 0.0224 µM; in experiment [3], more than 10 µM; in experiment [4] it was 0.072 µM; in experiment [5], more than 10 µM.
On to `COc1cc(CN2CCN(CCOc3ccc4c(C)cc(=O)oc4c3)CC2)cc(OC)c1OC` [Compound 16, 4-Methyl-7-(2-(4-(3,4,5-trimethoxybenzyl)piperazin-1-yl)ethoxy)-2H-chromen-2-one], for which the “RF (Reversal Fold: IC50 of doxorubicin alone / in presence of modulator)” value in experiment [1] (compound at 1 µM) was determined as 1.0; in experiment [1] (compound at 3 µM) it was 1.4. In addition, the Ki in experiment [2] is 0.0519 µM; in experiment [3], more than 10 µM; in experiment [4], 0.0082 µM; in experiment [5], more than 10 µM.
For the compound `COc1cc(CN2CCN(CCCOc3ccc4oc(=O)cc(C)c4c3)CC2)cc(OC)c1OC` [Compound 23, 4-Methyl-6-(3-(4-(3,4,5-trimethoxybenzyl)piperazin-1-yl)propoxy)-2H-chromen-2-one], the results for the “RF (Reversal Fold: IC50 of doxorubicin alone / in presence of modulator)” value in experiment [1] (compound at 1 µM) and in experiment [1] (compound at 3 µM) were 1.6 and 1.8, respectively. The Ki in experiment [2] was 0.304 µM; in experiment [3], more than 10 µM; in experiment [4], 0.242 µM; in experiment [5] it was more than 10 µM.
As for `COc1cc(/C=C/CN2CCN(CCCOc3ccc4oc(=O)cc(C)c4c3)CC2)cc(OC)c1OC` [Compound 11, (E)-4-Methyl-6-(3-(4-(3-(3,4,5-trimethoxyphenyl)allyl)piperazin-1-yl)propoxy)-2H-chromen-2-one], the “RF (Reversal Fold: IC50 of doxorubicin alone / in presence of modulator)” value in experiment [1] (compound at 1 µM) is on record as 2.4; in experiment [1] (compound at 3 µM), 4.1. In addition, the Ki in experiment [2] was 0.441 µM; in experiment [3], more than 10 µM; in experiment [4], 0.302 µM; in experiment [5] it was more than 10 µM.
With `COc1ccc(C(CCCN2CCN(CCOc3ccc4oc(=O)cc(C)c4c3)CC2)c2ccc(OC)cc2)cc1` [Compound 34, 6-(2-(4-(4,4-Bis(4-methoxyphenyl)butyl)piperazin-1-yl)ethoxy)-4-methyl-2H-chromen-2-one], the entries for the “RF (Reversal Fold: IC50 of doxorubicin alone / in presence of modulator)” value in experiment [1] (compound at 1 µM) and in experiment [1] (compound at 3 µM) were 5.7 and 14.3, respectively. For the same compound, the Ki in experiment [2] was 0.851 µM; in experiment [3], more than 10 µM; in experiment [4], 0.666 µM; in experiment [5], more than 10 µM.
Take `COc1cc(CN2CCN(CCCCOc3ccc4oc(=O)cc(C)c4c3)CC2)cc(OC)c1OC` [Compound 24, 4-Methyl-6-(4-(4-(3,4,5-trimethoxybenzyl)piperazin-1-yl)butoxy)-2H-chromen-2-one]: the “RF (Reversal Fold: IC50 of doxorubicin alone / in presence of modulator)” value in experiment [1] (compound at 1 µM) turned out to be 1.4; in experiment [1] (compound at 3 µM), 2.5. For the same compound, the Ki in experiment [2] is 0.0995 µM; in experiment [3] it was more than 10 µM; in experiment [4], 0.205 µM; in experiment [5], more than 10 µM.
